In ChEMBL document CHEMBL3132838, “Synthesis of chromenoindole derivatives from Robinia pseudoacacia” (Medchemcomm, 2013) one finds IC50, Activity and viability data, which are given here for two compounds.

Calls of active or inactive are those of the source. The calls are words filed in the database; no cut-off is given here.

Experiment [1] has as its system HCT-116. As to the kind of experiment: Cytotoxicity against human p53-positive HCT116 cells assessed as cell viability after 24 hrs by MTT assay. It is filed as functional, cell-based. The conditions noted are these: HCT-116, 24 h. Background: Tetrazolium assays rely on reduction of a dye to a coloured formazan, in cell work by metabolically active cells.
For another experiment, the system named is Steinernema feltiae. As to the kind of experiment: Nematicidal activity against Steinernema feltiae assessed as viability up to 200 uM after 48 hrs by microscopic analysis. It is filed as functional.
The next experiment has as its target T1, Aromatase (Homo sapiens, UniProt P11511).
T1 sequence (P11511 whole entry): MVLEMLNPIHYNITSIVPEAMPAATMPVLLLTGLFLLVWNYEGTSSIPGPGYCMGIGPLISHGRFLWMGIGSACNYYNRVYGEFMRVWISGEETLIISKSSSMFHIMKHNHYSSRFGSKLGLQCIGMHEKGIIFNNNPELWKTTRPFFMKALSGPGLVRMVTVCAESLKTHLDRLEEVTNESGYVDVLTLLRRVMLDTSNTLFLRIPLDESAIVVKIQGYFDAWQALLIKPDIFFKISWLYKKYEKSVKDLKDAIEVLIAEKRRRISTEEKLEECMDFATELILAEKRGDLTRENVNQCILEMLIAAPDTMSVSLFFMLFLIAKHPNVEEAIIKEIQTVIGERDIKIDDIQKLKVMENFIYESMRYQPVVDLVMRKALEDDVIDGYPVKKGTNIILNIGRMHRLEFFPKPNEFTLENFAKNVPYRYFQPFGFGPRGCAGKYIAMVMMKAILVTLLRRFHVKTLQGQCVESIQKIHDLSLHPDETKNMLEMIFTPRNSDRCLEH
As to the kind of experiment: Inhibition of human placental aromatase.

Experiment [2] concerns HL-60. The experiment is described as follows: Cytotoxicity against human HL60 cells assessed as cell survival at 40 uM after 72 hrs by MTT assay relative to control. The format is functional. The conditions noted are these: HL-60, 72 h, read-out: Survival.
The test system of experiment [3] is HL-60. The experiment is described as follows: Cytotoxicity against human HL60 cells assessed as cell survival at 200 uM after 72 hrs by MTT assay relative to control. The format is functional. The conditions noted are these: HL-60, 72 h, read-out: Survival.
Experiment [4] concerns HCT-116. As to the kind of experiment: Cytotoxicity against human p53-positive HCT116 cells assessed as cell viability up to 100 uM after 24 hrs by MTT assay. It is filed as functional, cell-based.
The subject of experiment [5] is Radical scavenging activity. As to the kind of experiment: Antioxidant activity assessed as DPPH radical scavenging activity. The format is functional. In general terms: The DPPH test is a chemical assay of radical scavenging.

Usually IC50 stands for the concentration that gives 50% inhibition. `COc1ccc2c3c([nH]c2c1)-c1ccc(O)cc1OC3`: the IC50 in the experiment on HCT-116 [1] is 66.1 µM.

As for `COc1ccc2c(c1)N[C@H]1c3ccc(O)cc3OC[C@@H]21` (racemic), the outcome with Steinernema feltiae and in the experiment with HCT-116 [4] was inactive. The IC50 (against Aromatase; in experiment [5]) was over 300 µM in each case. In addition, in the experiment with HL-60 [2], the viability at 40 µM worked out at 72%. Moreover, in the experiment with HL-60 [3], the viability at 200 µM came to 27%.
